In PMC11697409, “Design of Natterins-based peptides improves antimicrobial and antiviral activities” (Biotechnology Reports, 2024):
Read-outs that look alike come from different tables or passages of the source. Residues, ends and D or L forms follow the SMILES beside them. No end group written: not given here.

Tests used:
G. mellonella larvae = experiment: Toxicity in Galleria mellonella; assay type: in vivo; conditions: 10 µL of 50 µM injected into the last left proleg, ten larvae per group, 7 days, three independent experiments
Experimental: For this study, the methodologies described by Mylonakis et al. and Jorjão et al., with some modifications were employed. G. mellonella larvae in their final larval stage were used for the experiment. Ten randomly selected G. mellonella larvae of similar weight and size (250 to 350 mg) were used per group in all assays. Syringes (Hamilton Inc., USA) used for injections were sterilized with peracetic acid (Henkel - Ecolab GmbH, Düsseldorf, Germany) according to the manufacturer's instructions prior to inoculation. Each larva was injected with 10 µL of each peptide (NATT2_06 and NATT4_01) at a concentration of 50 µM into the last left proleg. A control group was injected with PBS to assess overall viability. The number of deceased G. mellonella was recorded every 24 h after peptide injection, with monitoring continuing for 7 days across three independent experiments. […] The experiment concluded either when all larvae in the experimental group had died or transitioned into the pupal form.

[1] = system: Chikungunya virus (CHIKV, ECSA genotype) in Huh-7 cells; assay type: cell-based; conditions: vs untreated CHIKV control
Experimental: . First, the viral propagation and titration were performed in the adherent African green monkey kidney epithelial (Vero) cells (ATCC CRL-1586). The virus was grown in Vero cultured in MEM medium (Gibco, Waltham, MA, USA) supplemented with 10 % fetal bovine serum (FBS, Gibco), 100 U/mL penicillin, and 100 μg/mL streptomycin (Gibco, Waltham, MA, USA)-M10) for 48 h Then, the supernatant was collected, harvested, and titrated as previously described. The titer obtained for CHIKV was 9.3 × 10^6 PFU/ml.
The immortalized human hepatocytes derived from the hepatocarcinoma of an individual (Huh-7 lineage, CLS 300156) were cultured. The Huh-7 were grown in Minimum Essential Medium (Advanced MEM, Gibco®, USA), supplemented with 10 % (v/v) heat-inactivated fetal bovine serum (FBS) (Gibco®, USA), 100 U/mL penicillin, and 100 μg/mL streptomycin (PenStrep – Gibco®, USA), along with 2 mM L-glutamine (Gibco®, USA), and maintained in a humidified atmosphere with 5 % CO2 at 37 °C. […]
The second assay, named "co-treatment" (Figure S1b), involved removing the culture medium from the wells, washing with PBS, followed by simultaneous inoculation of CHIKV and peptides, diluted in the same manner in culture medium with the same supplementation, in triplicate. […] Cells were also monitored for 12 h. […]
After conducting the assays, each viral RNA in the samples' supernatant was extracted using the QIAamp® Viral RNA Mini Kit (QIAGEN®, Germany). […] For the molecular characterization of NATT peptide treatment, RNA samples extracted from the plaque challenge assays' supernatants and viral stock dilutions underwent quantitative reverse transcription PCR (RT-qPCR) assays. […]
For the RT-qPCR reaction, the AgPath-ID® One Step RT-qPCR kit (Applied Biosystems®, USA) was used for each extracted RNA in duplicate. […] All detection and quantification of viral RNA was done by real-time PCR of each sample (Table S1 and Figure S14). […]

trypsin [2] = experiment: Peptide stability to trypsin, HPLC-MS; assay type: in vitro ADME; conditions: trypsin 20 μg/mL, peptide 100 μg/mL, incubation time not given; for Change after trypsin treatment, mass spectra: ESI-MS; for Change after trypsin treatment, HPLC chromatogram: HPLC C-18, UV 220 nm
Experimental: Peptide stability was evaluated under various conditions. To investigate the impact of temperature on peptide structure, samples were incubated at 37 °C and 60 °C for 24 h. A control sample was kept at -4 °C. To evaluate the distribution under acidic conditions, the peptides were dissolved in a 0.074 M HCl solution, resulting in a pH of 3. For evaluation under basic conditions, the peptides were dissolved in a 0.18 M NaOH solution, resulting in a pH of 11. A control sample was maintained at pH 7. Additionally, samples were exposed to trypsin solutions at a concentration of 20 µg/mL. All samples underwent analysis using High-Performance Liquid Chromatography (HPLC) coupled with Mass Spectrometry (LC/MS-2020 EV - Prominence; Shimadzu Corporation, Tokyo, Japan). The HPLC system comprised LC-10AD mobile phase pumps, an Ultrasphere C-18 column (5 µm; 4.6 × 250 mm), a UV-vis SPD-10AV detector set at a wavelength of 220 nm, and a mass spectrometer operating in electrospray ionization (ESI) mode with a quadrupole separator.
In mass spectrometry assays, an alkaline pH can lead to diverse outcomes. Specifically, in the analysis of proteins and peptides, an alkaline environment may induce unintended chemical modifications in certain samples, impacting ionization, fragmentation, and the detection of reference molecules. Additionally, the peptides underwent treatment with a trypsin solution at a concentration of 20 μg/mL.

human RBC = experiment: Hemolytic test; assay type: cell-based; conditions: 50 μM, 1 h at 37 °C, A570, 1 % TritonX-100 as positive control; highest percentage observed
Experimental: To perform the hemolytic test, human RBC was obtained from a volunteer donor. After centrifugation at 1000 xg for 5 min, the RBC pellets were resuspended in 5 % (vol/vol) sterile saline at different concentrations of peptides NATT2_06 and NATT4_01, and subsequently incubated at 37 °C for 1 hour. The supernatants were transferred to a 96-well plate, and the absorbance at 570 nm (A570) was measured. 0.12 % DMSO and 1 % TritonX-100 were used as negative and positive control, respectively. The hemolysis rate was calculated as Eq 1: Hemolysis%=A(sample)−A(DMSO)/A(Triton)−A(DMSO)x100

trypsin [3] = conditions: cited from earlier work
Experimental: In the case of the peptide Cap11, this loss of activity occurs after 15 min of incubation. Conversely, a brief exposure of up to 5 min to trypsin enhances the antimicrobial activity of peptides such as Cap11–1-18m² by a factor of 2 [76]. […] The sp ...

[4] = various assays; cited from earlier work
Text: Similarly, peptides including HKPLP, Cap18, Cap11, Cap11–1-18m², Cecropin B, Cecropin P1, Melittin, Indolic ...

| Compound | time of incubation with trypsin until antimicrobial activity is entirely lost (trypsin [3]) | temperature withstood [4] | also measured |
| --- | --- | --- | --- |
| CC(C)C[C@H](NC(=O)[C@H](CCCCN)NC(=O)CNC(=O)[C@H](CC(C)C)NC(=O)CNC(=O)[C@H](Cc1ccc(O)cc1)NC(=O)[C@H](CCCCN)NC(=O)[C@H](CC(N)=O)NC(=O)[C@H](CCCCN)NC(=O)[C@H](C)NC(=O)[C@@H](NC(=O)[C@H](Cc1ccc(O)cc1)NC(=O)[C@@H](N)CC(C)C)C(C)C)C(N)=O [NATT4_01] (H-LYVAKNKYGLGKL-NH2) |  |  | Deaths of G. mellonella larvae (G. mellonella larvae): no deaths were observed; Percentage of viral inhibition, co-treatment ([1]; 25 μM): 25,31%; Percentage of viral inhibition, co-treatment ([1]; 50 μM): 22,62%; Percentage of viral inhibition, co-treatment ([1]; 3125 μM (so in the source)): 22,44%; Change after trypsin treatment, mass spectra (trypsin [2]): fragments of the peptide were discernible; Change after trypsin treatment, HPLC chromatogram (trypsin [2]): no notable shifts observed in the chromatograms |
| CC(C)C[C@H](NC(=O)[C@H](CCCCN)NC(=O)[C@@H]1CCCN1C(=O)[C@H](CCCNC(=N)N)NC(=O)[C@H](CC(C)C)NC(=O)[C@@H](NC(=O)[C@@H](N)[C@@H](C)O)[C@@H](C)O)C(=O)N[C@@H](CCCCN)C(=O)N[C@@H](CO)C(=O)N[C@@H](CCCCN)C(N)=O [NATT2_06] (H-TTLRPKLKSK-NH2) |  |  | hemolysis (human RBC): 2%; Deaths of G. mellonella larvae (G. mellonella larvae): only three deaths occurred; Change after trypsin treatment, mass spectra (trypsin [2]): displayed notable changes in mass; Change after trypsin treatment, HPLC chromatogram (trypsin [2]): displayed notable changes in mass |
| Indolicidin (ILPWKWPWWPWRR; ends and bridges not checked; UniProt P33046 131-143, looked up) | ≤ 30 s | up to 100 °C |  |
| Cap18 | ≤ 30 s | up to 100 °C |  |
| Cecropin B | ≤ 30 s | up to 100 °C |  |
| Cecropin P1 (SWLSKTAKKLENSAKKRISEGIAIAIQGGPR; Cecropin-P1; UniProt P14661 14-44, looked up) | ≤ 30 s | up to 100 °C |  |
| Melittin | ≤ 30 s | up to 100 °C |  |
